Experimental data from US20250152660A1, “SCO-spondin-derived polypeptides for treating biological barriers dysfunction” (AXOLTIS PHARMA, priority 2021, published 2025).
Where “and” joins values, the source holds several entries; their conditions need not be identical. Equal entries are not always repeated. Bridges are numbered along the chain shown (N, C = ends). Where no end group is shown, it is not given here.

What was measured:
[1] = system: mouse brain endothelial bEnd.3 cells; assay: Permeability of mouse brain endothelial cell monolayer to FITC-40 kDa Dextran; assay type: cell-based; settings: for Permeability to FITC-40 kDa Dextran (endothelial permeability coefficient Pe): individual replicates N1-N3
Procedure: To determine the effect of NX218 on the permeability of mouse brain endothelial cells to a 40-kDa FITC Dextran, cells were grown on a semi-permeable membrane inserted in culture wells in presence or absence of NX218. Then, the FITC Dextran was placed on the apical chamber (containing the cells) and its levels measured (based on its fluorescence) one hour later in the basolateral chamber.
Mouse brain endothelial cells (bEnd.3, American Type Culture Collection) were cultured in DMEM supplemented with 10% FBS and 2 mM sodium pyruvate in a 5% CO2 incubator at 37° C.
bEnd.3 cells were grown to confluence on 1% fibronectin-coated Corning HTS 24-well Transwell polyester inserts with a pore size of 0.4 μm (5×10^4 cells per well containing 200 μL and 800 μL of culture medium in the apical and basolateral compartments respectively) and treated with vehicle or NX218 (1, 10 and 100 μM) for 1, 2 or 3 days. Two hundred (200) μL of 1 mg/mL of a 40-kDa FITC Dextran in DMEM supplemented with 10% FBS and 2 mM sodium pyruvate were added to the apical chamber of each well, and the cells were incubated at 37° C. Sampling aliquots were taken from the basolateral chamber and replaced with fresh medium every 15 min for 1 h and then transferred to 96-well plates. FITC-Dextran fluorescence was determined using a spectrofluorometer at an excitation wavelength of 485 nm and an emission wavelength of 520 nm. Relative fluorescence units were converted to values of nanograms per milliliter, using FITC-Dextran standard curves, and was corrected for background fluorescence and serial dilutions over the course of the experiment. The data are expressed as the endothelial permeability coefficient (Pe) in cm/min.

[2] = system: Claudin-5 at tight junction of mouse brain endothelial bEnd.3 cells; assay: Claudin-5 immunocytochemistry at tight junction in mouse brain endothelial cell cultures; assay type: cell-based
Procedure: To understand the effect of NX218 on the TEER and permeability of mouse brain endothelial cells in examples 3 and 4, the levels of the tight junction protein Claudin-5 were assessed using immunocytochemistry.
Mouse brain endothelial cells (bEnd.3, American Type Culture Collection) were cultured in DMEM supplemented with 10% fetal FBS and 2 mM sodium pyruvate in a 5% CO2 incubator at 37° C.
bEnd.3 cells were seeded on 1% fibronectin-coated Nunc Lab-Tek II Chamber Slides in culture medium (1×10^5 cells per well in 300 μL). Two days after seeding, cells were treated with vehicle or NX218 (1, 10 and 100 μM) for 1, 2 or 3 days. Cells were then fixed for 10 min at room temperature (RT) with 4% paraformaldehyde in phosphate buffered saline (PBS), washed twice with PBS and incubated with 5% normal goat serum and 0.05% Triton X-100 in PBS for 1 h at RT before overnight incubation with polyclonal rabbit anti-claudin-5 ( 1/100; 34-1600, Invitrogen) at 4° C. Cells were then washed three times with PBS and incubated with goat anti-rabbit Cy3 secondary antibody ( 1/500; ab6939, Abcam) for 2 h at RT and counterstained with Hoechst 33258 to visualize nuclei. The slide was removed from the chamber and mounted with Aqua Poly/Mount before visualization by confocal laser scanning/microscopy. Claudin-5 immunoreactivity (intensity) at membrane localization was finally quantified to evaluate Claudin-5 protein levels. The data are expressed as a percentage of the control condition.
A second independent experiment using the protocol described at example 5 was performed. Pooling the data from the 2 experiments (the first experiment was done in triplicate, the 2nd in duplicate, n=5) improves the statistical power and allow to reach statistical significance for a tendency observed at 72 hours timepoint.

W-S-G-W-S-S-C-S-R-S-C-G (WSGWSSCSRSCG; disulfide 7-11 (inferred)) [NX218]
Permeability to FITC-40 kDa Dextran (Pe), Average ([1]; NX218 1 μM, 24 hours, average of N1-N3, control 0.066): 1064 ×10⁻⁶ cm/s | Permeability to FITC-40 kDa Dextran (endothelial permeability coefficient Pe) ([1]; NX218 1 μM, 24 hours): 1020 ×10⁻⁶ cm/s and 971 ×10⁻⁶ cm/s and 1200 ×10⁻⁶ cm/s | Permeability to FITC-40 kDa Dextran (Pe), Average ([1]; NX218 1 μM, 48 hours, average of N1-N3, control 0.05616): 896.3 ×10⁻⁶ cm/s | Permeability to FITC-40 kDa Dextran (endothelial permeability coefficient Pe) ([1]; NX218 1 μM, 48 hours): 963 ×10⁻⁶ cm/s and 781.5 ×10⁻⁶ cm/s and 944.3 ×10⁻⁶ cm/s | Permeability to FITC-40 kDa Dextran (Pe), Average ([1]; NX218 1 μM, 72 hours, average of N1-N3, control 0.0532667): 906.3 ×10⁻⁶ cm/s | Permeability to FITC-40 kDa Dextran (endothelial permeability coefficient Pe) ([1]; NX218 1 μM, 72 hours): 942 ×10⁻⁶ cm/s and 942.2 ×10⁻⁶ cm/s and 834.8 ×10⁻⁶ cm/s | Permeability to FITC-40 kDa Dextran (Pe), Average ([1]; NX218 10 μM, 24 hours, average of N1-N3, control 0.066): 977.3 ×10⁻⁶ cm/s | Permeability to FITC-40 kDa Dextran (endothelial permeability coefficient Pe) ([1]; NX218 10 μM, 24 hours): 892 ×10⁻⁶ cm/s and 1030 ×10⁻⁶ cm/s and 1010 ×10⁻⁶ cm/s | Permeability to FITC-40 kDa Dextran (Pe), Average ([1]; NX218 10 μM, 48 hours, average of N1-N3, control 0.05616): 841.3 ×10⁻⁶ cm/s | Permeability to FITC-40 kDa Dextran (endothelial permeability coefficient Pe) ([1]; NX218 10 μM, 48 hours): 909 ×10⁻⁶ cm/s and 760 ×10⁻⁶ cm/s and 855 ×10⁻⁶ cm/s | Permeability to FITC-40 kDa Dextran (Pe), Average ([1]; NX218 10 μM, 72 hours, average of N1-N3, control 0.0532667): 747.7 ×10⁻⁶ cm/s | Permeability to FITC-40 kDa Dextran (endothelial permeability coefficient Pe) ([1]; NX218 10 μM, 72 hours): 748.2 ×10⁻⁶ cm/s and 783 ×10⁻⁶ cm/s and 712 ×10⁻⁶ cm/s | Permeability to FITC-40 kDa Dextran (Pe), Average ([1]; NX218 100 μM, 24 hours, average of N1-N3, control 0.066): 942 ×10⁻⁶ cm/s | Permeability to FITC-40 kDa Dextran (endothelial permeability coefficient Pe) ([1]; NX218 100 μM, 24 hours): 907 ×10⁻⁶ cm/s and 1012 ×10⁻⁶ cm/s and 906.3 ×10⁻⁶ cm/s | Permeability to FITC-40 kDa Dextran (Pe), Average ([1]; NX218 100 μM, 48 hours, average of N1-N3, control 0.05616): 702 ×10⁻⁶ cm/s | Permeability to FITC-40 kDa Dextran (endothelial permeability coefficient Pe) ([1]; NX218 100 μM, 48 hours): 627 ×10⁻⁶ cm/s and 725 ×10⁻⁶ cm/s and 753 ×10⁻⁶ cm/s | Permeability to FITC-40 kDa Dextran (Pe), Average ([1]; NX218 100 μM, 72 hours, average of N1-N3, control 0.0532667): 782 ×10⁻⁶ cm/s | Permeability to FITC-40 kDa Dextran (endothelial permeability coefficient Pe) ([1]; NX218 100 μM, 72 hours): 798 ×10⁻⁶ cm/s and 758.7 ×10⁻⁶ cm/s and 787.7 ×10⁻⁶ cm/s | Claudin-5 levels, result in words ([2]; 24 hours, NX218 at 10 and 100 μM): significant increase in Claudin-5 levels | Expression of Claudin-5 at tight junction ([2]; FIG. 3, 24-hour treatment): increases the expression of Claudin-5 at tight junction | Expression of Claudin-5 at tight junction ([2]; FIG. 5, 72-hour treatment): increases the expression of Claudin-5 at tight junction | Expression of Claudin-5 at tight junction, Average ([2]; NX218 1 μM, 24 hours, bEnd.3, average of N1-N6): 112.5 % of Control | Expression of Claudin-5 at tight junction ([2]; NX218 1 μM, 24 hours, bEnd.3, individual replicates N1-N6): 108.1 % of Control and 99.96 % of Control and 119.3 % of Control and 99.61 % of Control and 140.4 % of Control and 107.5 % of Control | Expression of Claudin-5 at tight junction, Average ([2]; NX218 1 μM, 48 hours, bEnd.3, average of N1-N6): 80.63 % of Control | Expression of Claudin-5 at tight junction ([2]; NX218 1 μM, 48 hours, bEnd.3, individual replicates N1-N6): 76.07 % of Control and 52.45 % of Control and 76.37 % of Control and 93.88 % of Control and 102.1 % of Control and 82.89 % of Control | Expression of Claudin-5 at tight junction, Average ([2]; NX218 1 μM, 72 hours, bEnd.3, first experiment (Table 9), average of N1-N4): 81.69 % of Control | Expression of Claudin-5 at tight junction ([2]; NX218 1 μM, 72 hours, bEnd.3, first experiment (Table 9), individual replicates N1-N4): 77.15 % of Control and 90.23 % of Control and 103.8 % of Control and 55.53 % of Control | Expression of Claudin-5 at tight junction, Average ([2]; NX218 1 μM, 72 hours, bEnd.3, pooled data of 2 experiments (Table 12), average of N1-N7): 96.00 % of Control | Expression of Claudin-5 at tight junction ([2]; NX218 1 μM, 72 hours, bEnd.3, pooled data of 2 experiments (Table 12), individual replicates N1-N7): 86.80 % of Control and 107.60 % of Control and 99.90 % of Control and 104.20 % of Control and 92.70 % of Control and 103.50 % of Control and 77.10 % of Control | Expression of Claudin-5 at tight junction, Average ([2]; NX218 10 μM, 24 hours, bEnd.3, average of N1-N6): 151.7 % of Control
